From publication PMC6968383, “Design, synthesis, in vitro and in vivo evaluation of benzylpiperidine-linked 1,3-dimethylbenzimidazolinones as cholinesterase inhibitors against Alzheimer’s disease” (Journal of Enzyme Inhibition and Medicinal Chemistry, 2019) come the findings set out here.

Data set [1] has as its system PC12 cells. The experiment in a line: Neuroprotection against H2O2-induced cell death in PC12 cells. The class given is cell-based. Conditions: PC12 cells pre-treated 24 h, 800 µM H2O2. Here is the method: We evaluated the cytoprotective effects of 15b and 15j on H2O2-induced cell damage. Treatment with 800 µM H2O2 for 24 h caused over 55% death rate of PC12 cells compared with the control group (Supplementary Figure S2(A)).
Figure S1. (A) The inhibitory effect of 15b and 15j on i Aβ1-42 self-aggregation. (B) […]
1.3. Neuroprotection assay against H2O2-induced cell death in PC12 cells Cytotoxicity was determined by using 3-(4,5-dimethylthiazol-2-yl)-2,5-diphenyltetrazoliumbromide (MTT) assay. The PC-12 cell line was purchased from Cell Bank of the Chinese Academy of Sciences (Shanghai, China). MTT was purchased from Sigma (M2128, St. Louis, MO). It was dissolved in phosphate buffered saline (PBS) to a stock concentration of 5 mg mL-1 and stored at - 20 °C. PC-12 cells were plated in 96-well plates, raised to a population of 1 × 10^4 cells per well, and incubated overnight. […]
Then the solution was removed and 150.0 μL of DMSO was added into each well to dissolve the MTT formazan crystals. […] The absorbance values (OD value) were read at 570 nm by microplate reader (Thermo, Varioskan Flash 3001, USA). The inhibitory rate for each concentration of the test compound was calculated by the equation as follows: […]
Here, ODtest, ODblank, and ODcontrol stand for the OD value from test compound, background, and DMSO, respectively. The IC50 values were calculated by GraphPad […]

Data set [2] has as its target T1, AChE (EC 3.1.1.7) from human (Homo sapiens, UniProt P22303).
T1 construct: purchased Sigma-Aldrich
The experiment in a line: human AChE inhibition assay, Ellman's method. The class given is biochemical. Conditions: for IC50: human AChE, mean ± SEM, read-out: huAChE IC50. Here is the method: (§1) ; The inhibitory activities of the target compounds towards AChE (from Electrophorus electricus (electric eeAChE, Sigma-Aldrich) and horse serum BChE (eqBChE, Sigma-Aldrich) or human AChE – huAChE; human BuChE – huBuChE (huAChE, huBuChE, Sigma-Aldrich) were measured by Ellman’s method. In 96-well plates, a mixture of phosphate buffer (0.1 M, pH 8.0, […]), 5,5′-dithiobis-2-nitrobenzoic acid (DTNB, 60 µL), acetylcholinestrase or butyrylcholinesterase (20 µL, 5 IU/mL) and different concentration of the compound solution (30 µL) was pre-incubated for 5 min followed by the addition of the substrate (acetylthiocholine iodide or butyrylthiocholine iodide, 20 µL). Changes in absorbance were measured at 412 nm by using microplate reader (Thermo, Varioskan Flash 3001, USA). The measurement of each concentration for each compound was detected in triplicate. GraphPad Prism 6.0 (GraphPad Software, Inc., La Jolla, CA) was used for data processing. The inhibition curve was fitted by plotting percentage enzyme activity (100% for the reference) versus the logarithm of the concentration of tested compound. The half-maximal inhibitory concentration (IC50) values were calculated according to the inhibition curve and the data were shown in the layout of mean ± SEM by GraphPad Prism 6.0.
On the technique in general: In Ellman's method for cholinesterases, released thiocholine reacts with DTNB.

In data set [3] the target is T2, BChE (EC 3.1.1.8) from human (Homo sapiens, UniProt P06276).
T2 construct: purchased Sigma-Aldrich
T2 sequence (P06276 29-602): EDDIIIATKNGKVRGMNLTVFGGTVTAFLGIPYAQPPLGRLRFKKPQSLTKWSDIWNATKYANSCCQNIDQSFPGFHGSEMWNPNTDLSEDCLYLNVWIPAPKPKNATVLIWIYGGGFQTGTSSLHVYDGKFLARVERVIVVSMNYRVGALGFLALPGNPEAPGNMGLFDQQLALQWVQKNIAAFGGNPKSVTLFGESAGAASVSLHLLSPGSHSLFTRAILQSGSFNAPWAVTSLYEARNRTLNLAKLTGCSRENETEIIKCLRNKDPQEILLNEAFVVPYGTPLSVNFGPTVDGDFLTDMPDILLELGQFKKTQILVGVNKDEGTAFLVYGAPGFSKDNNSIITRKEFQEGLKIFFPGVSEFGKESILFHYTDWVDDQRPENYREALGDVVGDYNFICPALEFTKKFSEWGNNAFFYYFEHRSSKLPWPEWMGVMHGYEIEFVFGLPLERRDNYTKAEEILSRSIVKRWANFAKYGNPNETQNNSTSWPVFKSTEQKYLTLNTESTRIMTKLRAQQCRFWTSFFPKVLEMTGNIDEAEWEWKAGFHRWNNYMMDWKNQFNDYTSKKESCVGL
The experiment in a line: human BChE inhibition assay, Ellman's method. The class given is biochemical. Conditions: mean ± SEM, read-out: huBChE IC50. As for the experimental part:
as §1

A short description of data set [4]: DPPH radical scavenging activity. Conditions: at 1 mM. Here is the method: Compounds 15b and 15j were selected to be evaluated for their 1,1-diphenyl-2-picrylhydrazyl radical scavenging activity (DPPH) compared with trolox as reference compound[12].
Corresponding Authors: clarissa0710@163.com (Y. Chen); sunhaopeng@163.com (H. P.
1.1. Inhibition of self-induced Aβ1–42 aggregation
Inhibitory effect of the compounds on self -induced Aβ1–42 aggregation was determined through a thioflavin T (ThT)-(T3516, Sigma-Aldrich) binding assay.
Firstly, aliquots of 2 μL of Aβ 1–42 (AS-64129–05 Anaspec Inc.) containing 2 mg/mL HFIP (1,1,1,3,3,3-hexafluoro-2-propanol, 52517 (Sigma-Aldrich) were stocked in DMSO).
Then, they were diluted with 0.215M sodium phosphate buffer (pH 8.0) to the final concentration of 500 μM. Test compounds were dissolved in DMSO and then prepared at a concentration of 50 μM by the buffer. Resveratrol was used as a positive control. […]
Fluorescence intensity was read (excitation wavelength 450 nm, emission wavelength 485 nm) on a microplate reader (Thermo, Varioskan Flas h 3001, USA).
The calculation of the inhibitory rate of Aβ 1–42 self-induced aggregation was performed using the following equation: (1 -IFi/IFc) × 100 %. IFi and IFc were the fluorescence intensities measured in the presence and absence of inhibitors, respe ctively, after subtracting the background fluorescence of the 5mM ThT solution. Each compound was measured in triplicate. […]

Data set [5] relates to HepG2 cells. The experiment in a line: In vitro hepatotoxicity on HepG2 cell line (MTT). It is filed as cell-based. Conditions: 5, 15, 50 µM, 24 h, compared to donepezil. As for the experimental part:
PC12 cell and HepG2 cell (human hepatocellular liver carcinoma cell line purchased from Institute of Materia of Chinese Academy of Medical Science), were grown in DMEM supplemented with 10% FBS at 37 °C in a humidified atmosphere containing 5% CO2. For the experiments, cells (6 × 10^3 cells/well) were seeded in 96-well plate in complete medium. […]

T1 sequence (P22303 32-614): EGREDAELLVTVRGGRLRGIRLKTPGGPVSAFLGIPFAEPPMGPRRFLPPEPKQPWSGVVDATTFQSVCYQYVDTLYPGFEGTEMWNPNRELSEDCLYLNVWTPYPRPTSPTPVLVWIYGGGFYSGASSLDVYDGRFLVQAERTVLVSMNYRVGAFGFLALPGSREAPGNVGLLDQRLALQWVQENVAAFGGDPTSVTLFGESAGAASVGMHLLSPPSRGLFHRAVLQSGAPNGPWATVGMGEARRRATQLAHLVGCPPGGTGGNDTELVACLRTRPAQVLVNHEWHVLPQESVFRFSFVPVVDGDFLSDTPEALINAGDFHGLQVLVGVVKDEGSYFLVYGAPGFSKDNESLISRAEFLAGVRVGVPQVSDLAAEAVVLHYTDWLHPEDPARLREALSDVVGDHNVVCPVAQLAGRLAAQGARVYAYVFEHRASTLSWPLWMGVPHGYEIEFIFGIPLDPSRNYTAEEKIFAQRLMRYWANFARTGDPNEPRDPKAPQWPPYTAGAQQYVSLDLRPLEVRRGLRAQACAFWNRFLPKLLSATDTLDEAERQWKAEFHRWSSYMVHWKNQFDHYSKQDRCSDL

Take `Cc1ccccc1CN1CCC(CNS(=O)(=O)c2ccc3c(c2)n(C)c(=O)n3C)CC1` [Compound 15b, 1,3-dimethyl-N-((1–(2-methylbenzyl)piperidin-4-yl)methyl)-2-oxo-2,3-dihydro-1H-benzo[d]imidazole-5-sulphonamide]: the “cytoprotective effect on H2O2-induced cell damage” value in data set [1] is recorded as “the mortality rate of PC12 cells caused by H2O2 was reduced”. The 50% inhibitory concentration (IC50) – broadly, the concentration needed to halve the response being measured – in data set [2] is 1490 ± 430 nM; in data set [3], 1330 ± 550 nM. In addition, the DPPH inhibitory rate in data set [4] turned out to be 12.2%. In data set [5], the “toxicity on HepG2 cell viability” value is “low toxicity on cell viability”.
Turning to `Cn1c(=O)n(C)c2cc(S(=O)(=O)NCC3CCN(Cc4cccc(Br)c4)CC3)ccc21` [Compound 15j, N-((1–(3-bromobenzyl)piperidin-4-yl)methyl)-1,3-dimethyl-2-oxo-2,3-dihydro-1H-benzo[d]imidazole-5-sulphonamide], the “cytoprotective effect on H2O2-induced cell damage” value in data set [1] was “the mortality rate of PC12 cells caused by H2O2 was reduced”. The “SI (selectivity index = AChE IC50/BChE IC50)” value in data set [2] (huAChE IC50 / huBChE IC50) was 1.89. Also, the results for the half-maximal inhibitory concentration (IC50) in data set [2] and in data set [3] were 1250 ± 480 nM and 660 ± 220 nM, respectively. This compound also showed a DPPH inhibitory rate in data set [4] of 6.3%. Moreover, the “toxicity on HepG2 cell viability” value in data set [5] was “low toxicity on cell viability”.
